Measured values taken from patent US8138158B2, “Compositions and methods for therapy for diseases characterized by defective chloride transport” (Children's Hospital & Research Center at Oakland, priority 1997, dated 2012).
Each block holds one compound with its values, some of them ahead of it.

How the values were obtained:
[1] = tested on: wildtype CFTR-corrected CF15 monolayers; experiment: Short-circuit current across wildtype CFTR-corrected CF15 monolayers; format: cell-based, human; conditions: D-isoascorbate 300 μm; amiloride; n=2
Experimental: (§1) Human airway cell culture. The human submucosal serous gland-like cell line Calu-3, the CF nasal epithelial cell line homozygous for ΔF508 CFTR (CF15) and human tracheal primary cultures (hTE) were cultured as described (Jefferson, D. M., Valentich, J. D., Marini, F. C., Grubman, S. A., Iannuzzi, M. C., Dorkin, H. L., Li, M., Klinger, K. W. & Welsh, M. J. (1990) Am. J. Physiol. 259, L496-L505. Sachs, L. A., Finkbeiner, W. E. & Widdicombe, J. H. (2003) In Vitro Cell Dev. Biol. Anim. 39, 56-62.). Wildtype CFTR-corrected CF15 cells were generated via adenovirus-mediated gene transfer. Growth media were nominally free of ascorbic acid (<10 μm, University Pathology Inc., Salt Lake City, Utah). For transepithelial measurements cells were grown on permeable filter inserts and used after 3 to 10 days.
(§2) Short-circuit current measurement. Calu-3 or CF15 cells were grown as monolayers, mounted in Ussing chambers and short-circuit current (ISC) was recorded as described (Illek, B. & Fischer, H. (1998) Am. J. Physiol. 275, L902-L910). At 20-50 second intervals, transepithelial voltage was clamped from zero to 2 mV and the transepithelial resistance (Rte) was calculated. A serosa-to-mucosa-directed Cl gradient was applied. Serosal Ussing chamber solution contained (in mM): 120 NaCl, 20 NaHCO3, 5 KHCO3, 1.2 NaH2PO4, 5.6 glucose, 2.5 CaCl2, 1.2 MgCl2. In mucosal Ussing chamber solutions, all Cl salts were exchanged for gluconate salts.
(§3) The CF15 cell line was used to determine whether ascorbate-stimulated Cl currents were solely mediated by the CFTR Cl conductance. The CF15 cell line is characterized by the absence of functional CFTR in the apical plasma membrane but the presence of other non-CFTR Cl conductances (Jefferson, D. M., Valentich, J. D., Marini, F. C., Grubman, S. A., Iannuzzi, M. C., Dorkin, H. L., Li, M., Klinger, K. W. & Welsh, M. J. (1990) Am. J. Physiol. 259, L496-L505). A concentration of L-ascorbic acid that lay within the upper plateau of the dose response curve (500 μm) was applied and ascorbate-stimulated Cl currents in CF15 vs. wildtype CFTR-corrected CF15 monolayers was compared (FIG. 23A). […] The defective response to L-ascorbic acid was reversed in wildtype CFTR-corrected CF15 epithelia such that ISC responded promptly to L-ascorbic acid (ΔISC=7.5±0.5 μA/cm^2, n=6). The ascorbate-stimulated current was further activated by the cAMP agonist forskolin and total stimulated ISC averaged 12.1±1.1 μA/cm^2 (FIG. 4B). The ascorbate-stimulated Cl current reached 60±15% of the forskolin-stimulated current in CFTR-corrected CF15 monolayers, which was close to the corresponding findings in Calu-3 monolayers (68%, see FIG. 21A). The absence of ascorbate-stimulated Cl currents in CF15 monolayers supports the notion that non-CFTR Cl conductances were not activated by L-ascorbic acid.
(§4) In this example, chloride currents stimulated by L-ascorbate or D-ascorbate were measured in CF15 versus. wildtype CFTR-corrected CF15 monolayers. A concentration of L-ascorbate (1 mM) or D-isoascorbate (300 μm) that lay within the upper plateau of the dose-response curve was applied to cells and the resulting chloride currents stimulated in CF15 versus wildtype CFTR-corrected CF15 monolayers were measured (FIG. 25 A-H). All experiments were performed in the presence of the sodium channel blocker amiloride. […]

ΔF508 CFTR = biological target: T1, ΔF508 CFTR (Mus musculus, UniProt P26361, DEL508-508); experiment: Rectal potential difference (RPD) in mice homozygous for ΔF508 CFTR; format: in vivo
T1 construct: from tissue; host or cells: rectal mucosa of living ΔF508 CF mice (C57Bl6/J), TMAO-treated or water-injected
From the text: CF mice and rectal potential difference (RPD) measurements. Gene-targeted mice homozygous for the ΔF508 mutation (C57Bl6/J) received Golytely® (Braintree Laboratories, Inc.), a diarrhetic supplement, in the drinking water to increase their lifespan (Clarke, L. L., Gawenis, L. R., Franklin, C. L. & Harline, M. C. (1996) Lab. Anim. Sci. 46, 612-8). To correct the maturation defect of ΔF508 CFTR we used the chemical chaperone trimethylamine oxide (TMAO) (Brown, C. R., Hong-Brown, L. Q., Biwersi, J., Verkman, A. S. & Welch, W. J. (1996) Cell Stress Chaperones 1, 117-25). CF mice were injected with 4 mg/g TMAO from a 4 M stock solution every 8 hours for 24 hours, which is a regimen to partially correct the ΔF508 defect in CF mice (Fischer, H., Barbry, P., Illek, B., Sartori, C., Fukuda, N. & Matthay, M. A. (2001) Am. J. Physiol. 281, L52-L57). Controls were water-injected. The RPD assay was performed on mice that were anesthetized with 0.1 mg/g body weight ketamine and 0.01 mg/g body weight azepromazine. RPD was sensed with a 1 M NaCl agar bridge inserted ˜1 cm into the rectum vs. a subcutaneous needle filled with 1 M NaCl. Measurements were performed in Cl free solution containing 100 μm amiloride and 5 mM Ba(OH)2 to isolate the Cl-selective RPD.
In this Example, it was determined whether L-ascorbic acid affected the functional activation of ΔF508 CFTR in a CF-affected organism in vivo. Using gene-targeted mice homozygous for the ΔF508 mutation it was shown previously that the osmolyte trimethylamine oxide (TMAO) effectively supported ΔF508 CFTR trafficking in vivo (Fischer, H., Barbry, P., Illek, B., Sartori, C., Fukuda, N. & Matthay, M. A. (2001) Am. J. Physiol. 281, L52-L57). Accordingly, the effect of L-ascorbic acid was tested in homozygous ΔF508 CF mice treated with TMAO by using the RPD assay as a functional end point measure for mutant ΔF508-CFTR function. FIG. 24A illustrates that TMAO-treated CF mice manifested a detectable response to a maximal dose of L-ascorbic acid (1 mM) or its epimer D-isoascorbic acid (300 μM) and RPD hyperpolarized on average by −3.2±0.8 mV (n=4) and −3.6±1.8 mV (n=3), respectively (FIG. 24B).

[2] = tested on: CF15 monolayers homozygous for ΔF508 CFTR; experiment: Short-circuit current across CF15 monolayers homozygous for ΔF508 CFTR; format: cell-based, human; conditions: D-isoascorbate 300 μm
Experimental: as §1, §2
as §3, with “The absence of ascorbate-stimulated Cl currents in CF15 monolayers supports the notion that non-CFTR Cl conductances were not activated by L-ascorbic acid.” left out
as §4, with “A-H).” for “A-H). All experiments were performed in the presence of the sodium channel blocker amiloride.”
The functional activation of ΔF508 CFTR was determined after correction of the underlying trafficking defect of ΔF508 CFTR using S-Nitrosoglutathione (Zaman, et al., Biochem Biophys Res Commun 284: 65-70, 2001; Snyder, et al., American Journal of Respiratory and Critical Care Medicine 165: 922-6, 2002; Andersson, et al. Biochemical and Biophysical Research Communication 297(3): 552-557, 2002.). […]

Calu-3 cell monolayer = experiment: Short-circuit current across α-toxin-permeabilized Calu-3 cell monolayer in Ussing chamber; format: cell-based, human; conditions: tissue first stimulated with forskolin 10 μM; biochanin A 100 and 300 μM
From the text: Within one in vitro assay, the level of chloride transport may be evaluated using mammalian pulmonary cell lines, such as Calu-3 cells, or primary human, rat, mouse and bovine tracheal and alveolar cell cultures, as well as intestinal epithelial cell lines, such as T84, HT-29, Caco-2 and cell lines of other epithelial origin such as MDCK and FRT. In general, such assays employ cell monolayers, which may be prepared by standard cell culture techniques. Within such systems, CFTR-mediated chloride current may be monitored in an Ussing chamber using intact epithelia. Anion efflux assays may be used to detect CFTR-mediated transport (e.g., iodide efflux, see for example RNA. 2003 October; 9(10): 1290-7). Additionally, chloride transport (or generally airway surface liquid composition), can be evaluated using any number of indicators such as described in J Gen Physiol. 2003 November; 122(5): 511-9. Alternatively, chloride transport may be evaluated using epithelial tissue in which the basolateral membrane is permeabilized with anion-selective ionophores such as nystatin, amphotericin B or Staphylococcus aureus α-toxin, and in which a chloride gradient is imposed across the apical membrane (see Illek et al., Am. J. Physiol. 270:C265-75, 1996). In either system, chloride transport is evaluated in the presence and absence of a test compound (i.e., a flavone or isoflavone, or ascorbate or derivative thereof), and those compounds that stimulate chloride transport as described above may be used within the methods provided herein.
A Calu-3 cell monolayer was prepared in an Ussing chamber as described by Illek et al., Am. J. Physiol. 270:C265-275, 1996. […]
To evaluate the effect of biochanin A, a Calu-3 cell monolayer was prepared and permeabilized as described above. […] The effect of biochanin A (Bio, 100 and 300 μM) on short-circuit current (ISC) across the Calu-3 monolayer was evaluated in an Ussing chamber.

Calu-3 monolayers = experiment: Transepithelial chloride currents in forskolin-prestimulated Calu-3 monolayers; format: cell-based, human; conditions: prestimulated with 10 μM forskolin; compound at 100 μM
Experimental: FIGS. 13A-13C illustrate the effect of additional representative flavonoids and isoflavonoids on chloride current in epithelial cells. FIG. 13A is a graph showing the stimulation of transepithelial chloride currents by reservatrol (100 μM), flavanone (100 μM), flavone (200 μM), apigenin (20 μM), apigenin 7-O-neohesperidoside (30 μM), kaempferol (20 μM), fisetin (100 μM), quercetin (30 μM), rutin (30 μM), genistein (30 μM), daidzein (50 μM), biochanin A (100 μM) and prunetin (100 μM) in Calu-3 monolayers. Experiments were performed in the presence of 10 μM forskolin. Stimulated currents are plotted relative to forskolin stimulated increase (forskolin stimulated currents are 100%). FIG. 13B is a recording showing the effect of 7,4′-dihydroxyflavone on chloride current in unstimulated tissue. […] Increasing concentrations of 7,4′-dihydroxyflavone (as indicated in μM) were added to mucosal side and dose-dependently stimulated chloride currents. Currents were recorded with a serosal-to-mucosal chloride gradient at 0 mV and pulses were obtained at 2 mV. FIG. 13C is a recording illustrating the effect of trimethoxy-apigenin. […] Increasing concentrations of trimethoxy-apigenin (as indicated in μM) were added to mucosal side and dose-dependently stimulated chloride currents. Experiment was performed on unstimulated tissue. Currents were recorded with a serosal-to-mucosal chloride gradient at 0 mV and pulses were obtained at 2 mV.
Airway epithelial cells were prestimulated with 10 μM forskolin. The percent increase in chloride current was then determined following treatment with a series of polyphenolic compounds. FIG. 13A summarizes the stimulatory effect of these compounds.

T1 sequence (P26361 with tags, fused parts or gaps DEL508-508): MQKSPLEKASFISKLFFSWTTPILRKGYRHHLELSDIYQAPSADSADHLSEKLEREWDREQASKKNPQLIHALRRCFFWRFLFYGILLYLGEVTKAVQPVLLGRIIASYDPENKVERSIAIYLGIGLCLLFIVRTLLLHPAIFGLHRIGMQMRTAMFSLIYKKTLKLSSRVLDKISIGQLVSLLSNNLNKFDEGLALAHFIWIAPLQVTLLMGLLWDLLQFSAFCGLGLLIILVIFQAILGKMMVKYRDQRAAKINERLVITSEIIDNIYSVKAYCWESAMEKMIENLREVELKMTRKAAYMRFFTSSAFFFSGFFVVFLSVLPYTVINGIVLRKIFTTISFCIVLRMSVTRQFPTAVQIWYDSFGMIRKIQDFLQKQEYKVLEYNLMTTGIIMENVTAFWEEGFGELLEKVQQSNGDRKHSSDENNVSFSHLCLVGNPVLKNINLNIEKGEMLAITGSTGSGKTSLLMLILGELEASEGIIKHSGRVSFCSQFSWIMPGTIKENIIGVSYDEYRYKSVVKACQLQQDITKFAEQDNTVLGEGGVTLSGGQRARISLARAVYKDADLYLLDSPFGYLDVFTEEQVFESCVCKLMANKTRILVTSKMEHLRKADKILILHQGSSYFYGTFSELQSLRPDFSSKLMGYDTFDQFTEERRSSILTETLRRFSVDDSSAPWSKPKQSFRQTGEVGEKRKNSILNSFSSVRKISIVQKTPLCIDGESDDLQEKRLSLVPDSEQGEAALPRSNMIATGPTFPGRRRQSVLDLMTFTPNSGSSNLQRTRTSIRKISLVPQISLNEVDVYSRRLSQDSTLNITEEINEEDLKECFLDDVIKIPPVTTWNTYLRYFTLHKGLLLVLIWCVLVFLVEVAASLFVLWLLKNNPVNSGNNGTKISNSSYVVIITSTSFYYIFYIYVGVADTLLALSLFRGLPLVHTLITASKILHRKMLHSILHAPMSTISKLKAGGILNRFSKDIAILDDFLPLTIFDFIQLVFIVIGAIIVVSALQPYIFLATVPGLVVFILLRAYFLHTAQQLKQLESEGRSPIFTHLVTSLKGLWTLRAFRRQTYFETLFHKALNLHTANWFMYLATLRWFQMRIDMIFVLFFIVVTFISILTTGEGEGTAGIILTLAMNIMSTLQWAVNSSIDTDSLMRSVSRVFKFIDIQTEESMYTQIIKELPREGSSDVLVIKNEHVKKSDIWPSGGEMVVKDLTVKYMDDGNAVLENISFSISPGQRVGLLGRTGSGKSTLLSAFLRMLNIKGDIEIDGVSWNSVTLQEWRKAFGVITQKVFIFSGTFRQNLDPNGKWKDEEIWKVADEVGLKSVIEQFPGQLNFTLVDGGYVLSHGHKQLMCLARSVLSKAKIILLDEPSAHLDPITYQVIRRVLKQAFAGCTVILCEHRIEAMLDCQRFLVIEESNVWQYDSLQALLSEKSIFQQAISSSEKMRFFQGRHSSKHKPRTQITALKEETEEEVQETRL

RPD hyperpolarized on average by (ΔF508 CFTR; CF mice treated with 4 mg/g TMAO for 24 hours, D-isoascorbic acid 300 μM, n=3): −3.6±1.8 mV
ΔRPD (ΔF508 CFTR; water-injected control CF mice, L-ascorbic acid or D-isoascorbic acid, n=9): −1.1±0.4 mV
Compound: O=C1O[C@H]([C@H](O)CO)C(O)=C1O [D-isoascorbic acid]
ΔIsc [1]: 6.6±1.7 μA/cm^2
transepithelial chloride currents increased on average by ([2]; CF15 treated with 1 mM SNOG for 5-24 hours, n=8): 3.1±0.5
ΔIsc ([2]; untreated CF epithelia, amiloride, n=7): 0.7±1.0 μA/cm^2

Compound: COc1ccc(-c2coc3cc(O)cc(O)c3c2=O)cc1 [biochanin A, 4′-methoxy-5,7-dihydroxyisoflavone]
short-circuit current (ISC), chloride secretion (Calu-3 cell monolayer): further stimulated chloride secretion
chloride currents further stimulated to (forskolin stimulated currents are 100%) (Calu-3 monolayers): 139%

Compound: C[N+](C)(C)[O-] [TMAO, trimethylamine oxide, reference compound]
increase of ascorbate- and isoascorbate-stimulated RPD compared to untreated CF mice (ΔF508 CFTR; TMAO 4 mg/g every 8 hours for 24 hours): approximately 3 fold
